Assay results: patent US20260042755A1, “GPR6 INVERSE AGONISTS” (MapLight Therapeutics, Inc., priority 2022, published 2026)

Assays:
GPR6 = target: T1, GPR6 (Homo sapiens, UniProt P46095); assay: GPR6 antagonist functional cAMP assay (LANCE Ultra cAMP TR-FRET, CHO cells stably expressing GPR6); type: cell-based
T1 construct: expressed in transfected cells; host or cells: CHO cells
How it was run: (§1)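 Compounds, at 0.1% final DMSO, acted on the cells for 45 minutes at 37 °C in the presence of the phosphodiesterase inhibitor Ro 20-1724 (150 μM). After lysis and detection, plates were shaken 1 h at room temperature and emission at 665 nm was recorded. Normalized data gave IC50 values.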

GPR3 = target: T2, GPR3 (Homo sapiens, UniProt P46089); assay: GPR3 antagonist functional cAMP assay (LANCE Ultra cAMP TR-FRET, CHO cells stably expressing GPR3); type: cell-based
T2 construct: expressed in transfected cells; host or cells: CHO cells
T2 sequence (P46089 whole entry, species assumed): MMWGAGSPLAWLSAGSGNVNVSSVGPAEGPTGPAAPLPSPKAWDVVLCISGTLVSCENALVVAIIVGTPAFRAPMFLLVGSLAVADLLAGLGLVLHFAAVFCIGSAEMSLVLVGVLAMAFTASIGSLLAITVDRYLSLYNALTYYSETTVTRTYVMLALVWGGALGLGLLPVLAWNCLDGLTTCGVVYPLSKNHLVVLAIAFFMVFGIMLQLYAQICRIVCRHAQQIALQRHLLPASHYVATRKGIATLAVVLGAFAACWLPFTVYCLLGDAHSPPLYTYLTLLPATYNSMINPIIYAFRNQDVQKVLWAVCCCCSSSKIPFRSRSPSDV
How it was run: as §1

[1] = CHO cells stably expressing GPR6, cAMP assay (Example 24)
[2] = CHO cells stably expressing GPR3, cAMP assay (Example 24)
[3] = CHO cells stably expressing GPR6, cAMP assay
[4] = CHO cells stably expressing GPR3, cAMP assay
[5] = procedure as described in Example 24

T1 sequence (P46095 whole entry): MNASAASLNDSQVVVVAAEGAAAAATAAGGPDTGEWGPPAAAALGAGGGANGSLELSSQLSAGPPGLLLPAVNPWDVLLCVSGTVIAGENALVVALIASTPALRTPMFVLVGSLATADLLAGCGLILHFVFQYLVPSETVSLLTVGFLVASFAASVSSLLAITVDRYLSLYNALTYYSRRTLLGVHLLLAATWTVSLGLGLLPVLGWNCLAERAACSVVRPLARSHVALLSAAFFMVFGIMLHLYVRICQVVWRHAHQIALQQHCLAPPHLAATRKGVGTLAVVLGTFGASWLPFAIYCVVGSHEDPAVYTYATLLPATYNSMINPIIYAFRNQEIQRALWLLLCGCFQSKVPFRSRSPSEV

| IC50 (GPR6; [1]) [µM] | IC50 (GPR3; [2]) [µM] | IC50 (GPR6; procedure of Example 24) [µM] | IC50 (GPR3; procedure of Example 24) [µM] | Structure (SMILES) | also measured |
| --- | --- | --- | --- | --- | --- |
|  |  | 1 to 30 | 1 to 30 | CC(=O)N1CCc2nc(N3CCC(C(O)c4ccc(F)cc4F)CC3)c(-c3ccc(F)c(N)n3)nc2C1 (stereo not drawn) [Compound 703, 1-[3-(6-amino-5-fluoro-2-pyridyl)-2-{4-[(2,4-difluorophenyl)hydroxymethyl]-1-piperidyl}-5,6,7,8-tetrahydro-1,4,6-triaza-6-naphthyl]-1-ethanone] |  |
|  |  | 0.1 to 1 | 1 to 30 | CCn1cc(-c2nc3cnc(C(C)(O)C(C)(C)O)cc3nc2N2CCC(Oc3ccc(F)cc3F)CC2)cn1 (stereo not drawn) [Compound 631, 2-{2-[4-(2,4-difluorophenoxy)-1-piperidyl]-3-(1-ethyl-4-pyrazolyl)-1,4,6-triaza-7-naphthyl}-3-methyl-2,3-butanediol] |  |
|  |  | 0.1 to 1 | 0.1 to 1 | CC(C)(O)C(O)c1cc2nc(N3CCN(Cc4ccc(F)cc4F)CC3)c(-c3ccc(F)c(N)n3)nc2cn1 (stereo not drawn) [Compound 791, 1-[3-(6-amino-5-fluoro-2-pyridyl)-2-{4-[(2,4-difluorophenyl)methyl]-1-piperazinyl}-1,4,6-triaza-7-naphthyl]-2-methyl-1,2-propanediol] |  |
|  |  | 0.1 to 1 | 0.1 to 1 | CC(C)(O)[C@@](C)(O)c1cc2nc(N3CCN(Cc4ccccc4F)CC3)c(-c3cnn(C(F)F)c3)nc2cn1 (single isomer, unassigned) [Compound 670] |  |
|  |  | 0.1 to 1 | 1 to 30 | CC(C)(O)C(C)(O)c1cc2nc(N3CCC(Oc4ccc(F)cc4F)CC3)c(-c3cnn(C4CC4)c3)nc2cn1 (stereo not drawn) [Compound 632, 2-{3-(1-cyclopropyl-4-pyrazolyl)-2-[4-(2,4-difluorophenoxy)-1-piperidyl]-1,4,6-triaza-7-naphthyl}-3-methyl-2,3-butanediol] |  |
|  |  | < 0.1 | 1 to 30 | CN(C)C(=O)N1CCc2nc(N3CCC(Oc4ccc(F)cc4F)CC3)c(-c3ccc(F)c(N)n3)nc2C1 [Compound 629, 6-{6-(N,N-dimethylcarbamoyl)-2-[4-(2,4-difluorophenoxy)-1-piperidyl]-5,6,7,8-tetrahydro-1,4,6-triaza-3-naphthyl}-3-fluoro-2-pyridylamine] |  |

The next lines start with the compound.

| Structure (SMILES) | IC50 (GPR6; [1]) [µM] | IC50 (GPR3; [2]) [µM] | IC50 (GPR6; procedure of Example 24) [µM] | IC50 (GPR3; procedure of Example 24) [µM] | also measured |
| --- | --- | --- | --- | --- | --- |
| N#CN1CCc2nc(N3CCC(Oc4ccc(F)cc4F)CC3)c(-c3cn[nH]c3)nc2C1 [Compound 171, 2-[4-(2,4-difluorophenoxy)piperidin-1-yl]-3-(1H-pyrazol-4-yl)-5H,6H,7H,8H-pyrido[3,4-b]pyrazine-6-carbonitrile] | < 0.1 | 1 to 30 |  |  |  |
| COc1ncc(-c2nc3c(nc2N2CCC(Oc4ccc(F)cc4F)CC2)CCN(C(C)=O)C3)cn1 [Compound 190, 1-{2-[4-(2,4-difluorophenoxy)piperidin-1-yl]-3-(2-methoxypyrimidin-5-yl)-5H,6H,7H,8H-pyrido[3,4-b]pyrazin-6-yl}ethan-1-one] | 0.1 to 1 | 1 to 30 |  |  |  |
| CCn1cc(-c2nc3cnccc3nc2N2CCC(Oc3cc(Cl)ccc3F)CC2)cn1 [Compound 295, 4-(5-chloro-2-fluorophenoxy)-1-[3-(1-ethyl-1H-pyrazol-4-yl)pyrido[3,4-b]pyrazin-2-yl]piperidine] |  |  | < 0.1 | 1 to 30 |  |
| Cn1cc(-c2nc3cnccc3nc2N2CCN(Cc3ccc(F)cc3F)C[C@H]2CO)cn1 (single isomer, unassigned) [Compound 292] |  |  | ≥ 30 | 1 to 30 |  |
| CC(=O)N1CCc2nc(N3CCC(Oc4ccc(F)cc4F)CC3)c(-c3cnn([C@@H](C)C#N)c3)nc2C1 (single isomer, unassigned) [Compound 271] |  |  | 0.1 to 1 | 1 to 30 |  |
| C[C@H]1CN(Cc2ccc(F)cc2F)CCN1c1nc2ccncc2nc1-c1cnn(C)c1 (single isomer, unassigned) [Compound 225] | 0.1 to 1 | 1 to 30 |  |  |  |
| CC(C)S(=O)(=O)N1CCc2nc(N3CCC(Oc4ccc(F)cc4F)CC3)c(-c3cnn(C4CCCCO4)c3)nc2C1 (stereo not drawn) [Compound 176, 4-(2,4-difluorophenoxy)-1-{3-[1-(oxan-2-yl)-1H-pyrazol-4-yl]-6-(propane-2-sulfonyl)-5H,6H,7H,8H-pyrido[3,4-b]pyrazin-2-yl}piperidine] | 0.1 to 1 | 1 to 30 |  |  |  |
| CCn1cc(-c2nc3c(nc2N2CCC(Oc4ccc(F)cc4F)CC2)CCN(C(=O)C2CCCN2)C3)cn1 (stereo not drawn) [Compound 291, 4-(2,4-difluorophenoxy)-1-[3-(1-ethyl-1H-pyrazol-4-yl)-6-(pyrrolidine-2-carbonyl)-5H,6H,7H,8H-pyrido[3,4-b]pyrazin-2-yl]piperidine] |  |  | < 0.1 | 1 to 30 |  |
| CC(=O)N1CCc2nc(N3CCC(Oc4ccc(C(F)(F)F)cc4F)CC3)c(-c3cnn(C)c3)nc2C1 [Compound 501, 1-(2-{4-[2-fluoro-4-(trifluoromethyl)phenoxy]-1-piperidyl}-3-(1-methyl-4-pyrazolyl)-5,6,7,8-tetrahydro-1,4,6-triaza-6-naphthyl)-1-ethanone] |  |  |  |  | IC50 (GPR6; [3]): 0.1 to 1 µM; IC50 (GPR3; [4]): 0.1 to 1 µM |
| COCC(O)c1cc2nc(N3CCC(Oc4ccc(F)cc4F)CC3)c(-c3cnn(C)c3)nc2cn1 (stereo not drawn) [Compound 437, 1-(2-(4-(2,4-difluorophenoxy)piperidin-1-yl)-3-(1-methyl-1H-pyrazol-4-yl)pyrido[3,4-b]pyrazin-7-yl)-2-methoxyethan-1-ol] | 0.1 to 1 | 1 to 30 |  |  |  |
| CC(=O)N1CCc2nc(N3CCC(Oc4ccc(F)cc4F)CC3)c(-c3cccc(N4CCCC4)n3)nc2C1 [Compound 101, 1-{2-[4-(2,4-difluorophenoxy)piperidin-1-yl]-3-[6-(pyrrolidin-1-yl)pyridin-2-yl]-5H,6H,7H,8H-pyrido[3,4-b]pyrazin-6-yl}ethan-1-one] | 1 to 30 | 1 to 30 |  |  |  |
| CC(=O)N1CCc2nc(N3CCN(Cc4cn[nH]c4)CC3)c(-c3cnn(C)c3)nc2C1 [Compound 536, 1-[3-(1-methyl-4-pyrazolyl)-2-{4-[(4-pyrazolyl)methyl]-1-piperazinyl}-5,6,7,8-tetrahydro-1,4,6-triaza-6-naphthyl]-1-ethanone] |  |  |  |  | IC50 (GPR6; [3]): ≥ 30 µM; IC50 (GPR3; [4]): ≥ 30 µM |
| Cn1cc(-c2nc3cnccc3nc2N2CCN(CC3CCCC(F)(F)C3)CC2)cn1 (stereo not drawn) [Compound 214, 1-[(3,3-difluorocyclohexyl)methyl]-4-[3-(1-methyl-1H-pyrazol-4-yl)pyrido[3,4-b]pyrazin-2-yl]piperazine] | 1 to 30 | 1 to 30 |  |  |  |
| CC(=O)N1CCc2nc(N3CCN(Cc4ccc(F)cc4)CC3)c(-c3cnn(C)c3)nc2C1 [Compound 257, 1-(2-{4-[(4-fluorophenyl)methyl]piperazin-1-yl}-3-(1-methyl-1H-pyrazol-4-yl)-5H,6H,7H,8H-pyrido[3,4-b]pyrazin-6-yl)ethan-1-one] | 1 to 30 | 1 to 30 |  |  |  |
| COc1ccc(C(=O)N2CCN(c3nc4c(nc3-c3cnn(C)c3)CN(C(C)=O)CC4)CC2)cc1 [Compound 283, 1-{2-[4-(4-methoxybenzoyl)piperazin-1-yl]-3-(1-methyl-1H-pyrazol-4-yl)-5H,6H,7H,8H-pyrido[3,4-b]pyrazin-6-yl}ethan-1-one] |  |  | 1 to 30 | 1 to 30 |  |
| Cn1cc(-c2nc3cc(C(=O)C(C)(C)O)ncc3nc2N2CCN(Cc3ccc(F)cc3F)CC2)cn1 [Compound 563, 1-(3-{4-[(2,4-difluorophenyl)methyl]-1-piperazinyl}-2-(1-methyl-4-pyrazolyl)-1,4,6-triaza-7-naphthyl)-2-hydroxy-2-methyl-1-propanone] |  |  |  |  | IC50 (GPR6; [3]): 0.1 to 1 µM; IC50 (GPR3; [4]): 1 to 30 µM |
| Fc1ccc(Cl)cc1CN1CCN(c2nc3cnccc3nc2-c2ncc[nH]2)CC1 [Compound 42] |  |  |  |  | IC50 (GPR6; [5]): 1 to 30 µM; IC50 (GPR3; [5]): 0.1 to 1 µM |
| CCn1cc(-c2nc3cnc(C(O)C(C)(C)O)cc3nc2N2CCC(Oc3cc(Cl)ccc3Cl)CC2)cn1 (stereo not drawn) [Compound 441, 1-{2-[4-(2,5-dichlorophenoxy)piperidin-1-yl]-3-(1-ethyl-1H-pyrazol-4-yl)pyrido[3,4-b]pyrazin-7-yl}-2-methylpropane-1,2-diol] | 0.1 to 1 | 1 to 30 |  |  |  |
| Fc1ccc(CN2CCN(c3nc4cnccc4nc3-c3ncc[nH]3)CC2)c(Cl)c1 [Compound 65, 1-[(2-chloro-4-fluorophenyl)methyl]-4-[2-(1H-imidazol-2-yl)pyrido[3,4-b]pyrazin-3-yl]piperazine] | 1 to 30 | 0.1 to 1 |  |  |  |
| CC(=O)N1CCc2nc(N3CCC(Oc4ccc(Cl)cc4Cl)CC3)c(-c3cnn(C)c3)nc2C1 [Compound 429, 1-{2-[4-(2,4-dichlorophenoxy)piperidin-1-yl]-3-(1-methyl-1H-pyrazol-4-yl)-5H,6H,7H,8H-pyrido[3,4-b]pyrazin-6-yl}ethan-1-one] | 0.1 to 1 | 1 to 30 |  |  |  |
| CCn1cc(-c2nc3c(nc2N2CCC(Oc4ccc(F)cc4F)CC2)CCN(C(=O)C2COCCO2)C3)cn1 (stereo not drawn) [Compound 474, 4-(2,4-difluorophenoxy)-1-[6-(1,4-dioxane-2-carbonyl)-3-(1-ethyl-1H-pyrazol-4-yl)-5H,6H,7H,8H-pyrido[3,4-b]pyrazin-2-yl]piperidine] | < 0.1 | 1 to 30 |  |  |  |
| CC(=O)N1CCc2nc(N3CCN(Cc4ccccc4Cl)CC3)c(-c3cnn(C)c3)nc2C1 [Compound 507, 1-(2-{4-[(o-chlorophenyl)methyl]-1-piperazinyl}-3-(1-methyl-4-pyrazolyl)-5,6,7,8-tetrahydro-1,4,6-triaza-6-naphthyl)-1-ethanone] |  |  |  |  | IC50 (GPR6; [3]): 0.1 to 1 µM; IC50 (GPR3; [4]): 1 to 30 µM |
| CC(=O)N1CCc2nc(N3CCN(Cc4ccc(F)cc4F)C[C@H]3C)c(-c3cnn(C)c3)nc2C1 (single isomer, unassigned) [Compound 231] | 1 to 30 | 1 to 30 |  |  |  |
| CC(=O)N1CCc2nc(N3CCC(Oc4ccc(F)cc4F)CC3)c(-c3cnn(CC(F)F)c3)nc2C1 [Compound 3, 1-{3-[1-(2,2-difluoroethyl)-1H-pyrazol-4-yl]-2-[4-(2,4-difluorophenoxy)piperidin-1-yl]-5H,6H,7H,8H-pyrido[3,4-b]pyrazin-6-yl}ethan-1-one] |  |  |  |  | IC50 (GPR6; [5]): 0.1 to 1 µM; IC50 (GPR3; [5]): 1 to 30 µM |
